Among the data in patent US10100046B2, “Inhibitors of lysine specific demethylase-1” (Celgene Quanticel Research, Inc., priority 2014, dated 2018) are IC50 values, retold here.

One assay has as its target full-length human LSD1 (Homo sapiens (Human), UniProt O60341). Put plainly: In Vitro Enzyme Inhibition Assay—LSD-1 (TR-FRET). The format is biochemical. Conditions: H3K4me1-biotin labeled peptide. As to the method: This assay determines the ability of a test compound to inhibit LSD1 demethylase activity. E. coli expressed full-length human LSD1 (Accession number 060341) was purchased from Active Motif (Cat#31334).
The enzymatic assay of LSD1 activity is based on Time Resolved-Fluorescence Resonance Energy Transfer (TR-FRET) detection. The inhibitory properties of compounds to LSD1 were determined in 384-well plate format under the following reaction conditions: 0.1-0.5 nM LSD1, 50 nM H3K4me1-biotin labeled peptide (Anaspec cat #64355), 2 μM FAD in assay buffer of 50 mM HEPES, pH7.3, 10 mM NaCl, 0.005% Brij35, 0.5 mM TCEP, 0.2 mg/ml BSA. Reaction product was determined quantitatively by TR-FRET after the addition of detection reagent Phycolink Streptavidin-allophycocyanin (Prozyme) and Europium-anti-unmodified histone H3 lysine 4 (H3K4) antibody (PerkinElmer) in the presence of LSD1 inhibitor such as 1.8 mM of Tranylcypromine hydrochloride (2-PCPA) in LANCE detection buffer (PerkinElmer) to final concentration of 12.5 nM and 0.25 nM respectively.
The assay reaction was performed according to the following procedure: 2 μL of the mixture of 150 nM H3K4me1-biotin labeled peptide with 2 μL of 11-point serial diluted test compound in 3% DMSO were added to each well of plate, followed by the addition of 2 μL of 0.3 nM LSD1 and 6 μM of FAD to initiate the reaction. The reaction mixture was then incubated at room temperature for one hour, and terminated by the addition of 6 μL of 1.8 mM 2-PCPA in LANCE detection buffer containing 25 nM Phycolink Streptavidin-allophycocyanin and 0.5 nM Europium-anti-unmodified H3K4 antibody. Enzymatic reaction is terminated within 15 minutes if 0.5 LSD1 enzyme is used in the plate. Plates were read by EnVision Multilabel Reader in TR-FRET mode (excitation at 320 nm, emission at 615 nm and 665 nm) after 1 hour incubation at room temperature. A ratio was calculated (665/615) for each well and fitted to determine inhibition constant (IC50).
The ability of the compounds disclosed herein to inhibit LSD1 activity was quantified and the respective IC50 value was determined. Table 3 provides the IC50 values of various substituted heterocyclic compounds disclosed herein.

For the next assay, the system named is THP-1 (AML) cells. Put plainly: LSD1 CD11b Cellular Assay (flow cytometry). Type of assay: cell-based. Conditions: Homo sapiens, 96 h; CD11b expression in THP-1 cells, 4 days. As for the experimental part:
To analyze LSD1 inhibitor efficacy in cells, a CD11b flow cytometry assay was performed. LSD1 inhibition induces CD11b expression in THP-1 (AML) cells which can be measured by flow cytometry. […] LSD1 test compounds were serially diluted in DMSO. The dilutions were added to each well accordingly to a final concentration of 0.2% DMSO. The cells were incubated at 37 degrees Celsius in 5% CO2 for 4 days. 250 μL of each well was transferred to a well in a 96 well round bottom plate. The plate was centrifuged at 1200 rpm at 4 degrees Celsius in a Beckman Coulter Alegra 6KR centrifuge for 5 minutes. The media was removed leaving the cells at the bottom of the wells. The cells were washed in 100 μL cold HBSS (Hank's Balanced Salt Solution) plus 2% BSA (Bovine Serum Albumin) solution and centrifuged at 1200 rpm at 4 degrees Celsius for 5 minutes. The wash was removed. […] The cells were centrifuged and washed two times in 100 μl HBSS plus 2% BSA. After the final spin the cells were resuspended in 100 μL HBSS plus 2% BSA containing 1 ug/mL DAPI (4′,6-diamidino-2-phenylindole). The cells were then analyzed by flow cytometry in a BD FACSAria machine. Cells were analyzed for CD11b expression. The percent of CD11b expressing cells for each inhibitor concentration was used to determine an IC50 curve for each compound analyzed.

As to `N#Cc1ccc(-c2nc(N3CCC4NCCC4C3)cc(=O)n2-c2ccc(C3CC3)cc2)cc1F` (stereo not drawn) [Example 27, 4-[4-(1,2,3,3a,4,6,7,7a-octahydropyrrolo[3,2-c]pyridin-5-yl)-1-(4-cyclopropylphenyl)-6-oxopyrimidin-2-yl]-2-fluorobenzonitrile], the half-maximal inhibitory concentration (IC50) was ≤ 100 nM at full-length human LSD1 and < 100 nM in the assay with THP-1 (AML) cells.

Turning to `N#Cc1ccc(-c2nc(N3CCC(N)CC3)sc2-c2cnn(CC(F)(F)F)c2)cc1` [Example 12, 4-[2-(4-aminopiperidin-1-yl)-5-[1-(2,2,2-trifluoroethyl)-1H-pyrazol-4-yl]-1,3-thiazol-4-yl]benzonitrile], the IC50 is ≤ 100 nM against full-length human LSD1 and < 100 nM in the assay on THP-1 (AML) cells.

Consider `Cn1cc2cc(-c3sc(N4CCC(N)CC4)nc3-c3ccc(C#N)cc3)ccc2n1` [Example 34], for which the IC50 against full-length human LSD1 is ≤ 100 nM; in the assay on THP-1 (AML) cells, < 100 nM.

In the case of `Cn1ncc2cc(-c3sc(N4CCC5NCCC5C4)nc3-c3ccc(C#N)cc3)ccc21` (stereo not drawn) [Example 6], the values for the IC50 against full-length human LSD1 and in the assay on THP-1 (AML) cells were ≤ 100 nM and < 100 nM, respectively.

For the molecule `Cc1ccc(-c2sc(C(=O)N3CCC[C@@H](N)C3)nc2-c2ccc(C#N)cc2)cc1` [Example 19, 4-{2-[(3R)-3-aminopiperidine-1-carbonyl]-5-(4-methylphenyl)-1,3-thiazol-4-yl}benzonitrile], the IC50 on full-length human LSD1 is ≤ 100 nM; in the assay on THP-1 (AML) cells it was < 100 nM.

As for `N#Cc1ccc(-c2nc(N3CCC4CNCC4C3)cc(=O)n2-c2ccc(C3CC3)cc2)cc1F` (stereo not drawn) [Example 28, 4-[4-(1,2,3,3a,4,6,7,7a-octahydropyrrolo[3,4-c]pyridin-5-yl)-1-(4-cyclopropylphenyl)-6-oxopyrimidin-2-yl]-2-fluorobenzonitrile], the values for the half-maximal inhibitory concentration (IC50) against full-length human LSD1 and in the assay with THP-1 (AML) cells were ≤ 100 nM and < 100 nM, respectively.

As for `Cn1cnc2cc(-c3sc(C(=O)N4CCC(N)CC4)nc3-c3ccc(C#N)cc3)ccc21` [Example 18, 4-[2-(4-aminopiperidine-1-carbonyl)-5-(1-methyl-1H-1,3-benzodiazol-5-yl)-1,3-thiazol-4-yl]benzonitrile], the IC50 against full-length human LSD1 was ≤ 100 nM; in the assay on THP-1 (AML) cells it was < 100 nM.

`N#Cc1ccc(-c2nc(N3CC[C@@H]4CNC[C@@H]4CC3)sc2-c2cnn(CC(F)(F)F)c2)cc1` [Example 13, 4-(2-{decahydropyrrolo[3,4-d]azepin-6-yl}-5-[1-(2,2,2-trifluoroethyl)-1H-pyrazol-4-yl]-1,3-thiazol-4-yl)benzonitrile]: the values for the half-inhibitory concentration (IC50) at full-length human LSD1 and with THP-1 (AML) cells were ≤ 100 nM and < 100 nM, respectively.

Take `Cn1cnc2cc(-c3sc(N4CC[C@@H]5CNC[C@@H]5CC4)nc3-c3ccc(C#N)cc3)ccc21` [Example 10, cis-4-(2-{decahydropyrrolo[3,4-d]azepin-6-yl}-5-(1-methyl-1H-1,3-benzodiazol-5-yl)-1,3-thiazol-4-yl)benzonitrile]: the concentration for half-maximal inhibition (IC50) is ≤ 100 nM against full-length human LSD1 and < 100 nM in the assay on THP-1 (AML) cells.

Consider `Cn1cnc2cc(-c3sc(N4CCC(N)CC4)nc3-c3ccc(C#N)cc3)cnc21` [Example 9, 4-[2-(4-aminopiperidin-1-yl)-5-{3-methyl-3H-imidazo[4,5-b]pyridin-6-yl}-1,3-thiazol-4-yl]benzonitrile], for which the IC50 on full-length human LSD1 is ≤ 100 nM; with THP-1 (AML) cells, < 100 nM.

`Cn1ccc2cc(-c3sc(N4CCC(N)CC4)nc3-c3ccc(C#N)cc3)cnc21` [Example 3, 4-[2-(4-aminopiperidin-1-yl)-5-{1-methyl-1H-pyrrolo[2,3-b]pyridin-5-yl}-1,3-thiazol-4-yl]benzonitrile]: the results for the IC50 on full-length human LSD1 and in the assay on THP-1 (AML) cells were ≤ 100 nM and < 100 nM, respectively.

In the case of `Cn1ncc2cc(-c3sc(N4CC[C@@H]5CNC[C@@H]5CC4)nc3-c3ccc(C#N)cc3)ccc21` [Example 2, cis-4-(2-{decahydropyrrolo[3,4-d]azepin-6-yl}-5-(1-methyl-1H-indazol-5-yl)-1,3-thiazol-4-yl)benzonitrile], the IC50 in the assay with THP-1 (AML) cells was < 100 nM.

As to `COc1ccc(-n2c(-c3ccc(C#N)c(F)c3)nc(N3CCC(N)CC3)cc2=O)cc1` [Example 32, 4-[4-(4-aminopiperidin-1-yl)-1-(4-methoxyphenyl)-6-oxopyrimidin-2-yl]-2-fluorobenzonitrile], the concentration for half-maximal inhibition (IC50) on full-length human LSD1 is ≤ 100 nM.
